{"source": "patent US20250281449A1", "about": "“NITROGEN-CONTAINING ANALOGS OF SALINOMYCIN FOR USE IN MULTIPLE MYELOMA (MM)” (Centre National de la Recherche Scientifique, priority 2021, published 2025)", "key": {"[1]": {"test_system": "pan-caspase, caspase3/7 and caspase 9 activity in OPM-2 cells", "test": "Caspase activity by luminometry", "format": "cell-based, human", "details": "OPM-2, 48H", "description": "OPM-2 cells were treated as indicated during 48H and pan-caspase, caspase3/7 and caspase 9 activity were measured by luminometry. 4-OH-cyclophosphamide (80 μM) was used as a positive control (C)."}, "[2]": {"test_system": "XG20", "test": "Cell viability assay (Cell Titer-Glo), HMCL", "format": "cell-based", "details": "Homo sapiens; XG20 HMCL, 96H; read-out: IC50", "description": "(§1) The panel of 17 HMCL cell lines were incubated with increasing concentrations of Ironomycin (A), AM23 (B) or vehicle for 96H.\n(§2) HMCL cell lines were cultured for 4 days in 96-well flat-bottom microtiter plates in RPMI 1640 medium or DMEM medium, 10% or 20% FCS (control medium) in the presence of various compounds. The number of viable cells in culture was determined using the Cell Titer-Glo Luminescent Cell Viability Assay from Promega, Madison, WI, USA using a Centro LB 960 luminometer (Berthold Technologies, Bad Wildbad, Germany).\n(§3) This test is based on quantitation of the intracellular ATP present, which signals the presence of metabolically active cells. Data are expressed as the mean percentage of six replicates, normalized to the untreated control."}, "[3]": {"test_system": "L363", "test": "Cell viability assay (Cell Titer-Glo), HMCL", "format": "cell-based", "details": "Homo sapiens, L-363, 96H", "description": "as §1, §2, §3"}, "[4]": {"test_system": "XG24", "test": "Cell viability assay (Cell Titer-Glo), HMCL", "format": "cell-based", "details": "Homo sapiens; XG24 HMCL, 96H; read-out: IC50", "description": "as §1, §2, §3"}, "[5]": {"test_system": "XG12", "test": "Cell viability assay (Cell Titer-Glo), HMCL", "format": "cell-based", "details": "Homo sapiens; XG12 HMCL, 96H; read-out: IC50", "description": "as §1, §2, §3"}, "[6]": {"test_system": "XG11", "test": "Cell viability assay (Cell Titer-Glo), HMCL", "format": "cell-based", "details": "Homo sapiens, 96H", "description": "as §1, §2, §3"}, "[7]": {"test_system": "AMO-1", "test": "Cell viability assay (Cell Titer-Glo), HMCL", "format": "cell-based", "details": "Homo sapiens, AMO1; AMO-1 HMCL, 96H", "description": "as §1, §2, §3"}, "[8]": {"test_system": "XG28", "test": "Cell viability assay (Cell Titer-Glo), HMCL", "format": "cell-based", "details": "Homo sapiens; XG28 HMCL, 96H; read-out: IC50", "description": "as §1, §2, §3"}, "[9]": {"test_system": "XG-7", "test": "Cell viability assay (Cell Titer-Glo), HMCL", "format": "cell-based", "details": "Homo sapiens; XG-7 HMCL, 96H; read-out: IC50", "description": "as §1, §2, §3"}, "[10]": {"test_system": "XG-19", "test": "Cell viability assay (Cell Titer-Glo), HMCL", "format": "cell-based", "details": "Homo sapiens; XG-19 HMCL, 96H", "description": "as §1, §2, §3"}, "[11]": {"test_system": "XG2", "test": "Cell viability assay (Cell Titer-Glo), HMCL", "format": "cell-based", "details": "Homo sapiens, 96H", "description": "as §1, §2, §3"}, "[12]": {"test_system": "XG6", "test": "Cell viability assay (Cell Titer-Glo), HMCL", "format": "cell-based", "details": "Homo sapiens; XG6 HMCL, 96H; read-out: IC50", "description": "as §1, §2, §3"}, "[13]": {"test_system": "XG-1", "test": "Cell viability assay (Cell Titer-Glo), HMCL", "format": "cell-based", "details": "Homo sapiens; XG-1 HMCL, 96H; read-out: IC50", "description": "as §1, §2, §3"}, "[14]": {"test_system": "MOLP-8", "test": "Cell viability assay (Cell Titer-Glo), HMCL", "format": "cell-based", "details": "Homo sapiens; MOLP-8 HMCL, 96H; read-out: IC50", "description": "as §1, §2, §3"}, "[15]": {"test_system": "JJN3", "test": "Cell viability assay (Cell Titer-Glo), HMCL", "format": "cell-based", "details": "Homo sapiens, JJN-3, 96H", "description": "as §1, §2, §3"}, "[16]": {"test_system": "RPMI", "test": "Cell viability assay (Cell Titer-Glo), HMCL", "format": "cell-based", "details": "Homo sapiens, 96H", "description": "as §1, §2, §3"}, "[17]": {"test_system": "XG21", "test": "Cell viability assay (Cell Titer-Glo), HMCL", "format": "cell-based", "details": "Homo sapiens; XG21 HMCL, 96H; read-out: IC50", "description": "as §1, §2, §3"}, "[18]": {"test_system": "OPM-2", "test": "Cell viability assay (Cell Titer-Glo), HMCL", "format": "cell-based", "details": "Homo sapiens; OPM-2 HMCL, 96H; read-out: IC50", "description": "as §1, §2, §3"}, "[19]": {"test_system": "non-MM cells", "test": "Assay on primary samples of patients, non-MM cells (flow cytometry)", "format": "cell-based, human", "description": "Primary MM cells were treated with Ironomycin (A) or AM-23 (B) and incubated during 96H with IL-6. The toxicity on MM cells and non-MM cells was analyzed by flow cytometry and expressed in % of control.\nBone marrow samples were collected after patients' written informed consent in accordance with the Declaration of Helsinki and institutional research board approval from Montpellier University hospital. Cells are obtained from […] of 5 patients with MM. Cells are obtained by density gradient separation and qualified by Flow cytometry.\nCells are cultured in Gibco® RPMI-1640 (Glutamax) medium (#6187-010) with 10% FBS at a density of 0.5×10^6 Cell/mL with 2 ng/mL of interleukin-6. Cells are seeded 24H after thawing and treated with various compounds during 72H.\nTotal cells were counted with trypan blue and stained with the panel CD38-APC, CD138-PE (Beckman coulter) and analyzed by flow cytometry (Fortessa cytometer, BD Pharmigen). Tumorous MM cells were gated on CD38+ and CD138+."}, "[20]": {"test_system": "XG-7 and OPM-2 cell line", "test": "Apoptosis with iron supplementation (FeCl3), Annexin V-PE", "format": "cell-based, human", "details": "80 μM deferasirox or 100 nM Ironomycin, 4 hours then 72H with FeCl3 100 μM", "description": "XG-7 and OPM-2 cell line was pre-incubated with or without 80 μM of deferasirox or 100 nM of Ironomycin, for 4 hours followed by 72H incubation in presence or absence of FeCl3 (100 μM). Apoptosis was assessed using Annexin V-PE staining by flow cytometry.\nAnnexin V-PE staining for apoptosis analysis was performed using the “PE Annexin V Apoptosis Detection Kit I” (559763, Becton Dickinson)."}, "[21]": {"test_system": "MM cell lines", "test": "Cell growth inhibition in panel of MM cell lines", "format": "cell-based, human", "details": "96H", "description": "as §1, §2, §3\nThe therapeutic interest of iron metabolism inhibitors AM5 (Ironomycin) and AM23 was further investigated using large collection of 18 MM cell lines (Moreaux J et al. Haematologica 2011; Vikova V et al. Theranostics 2019). The IC50 of Ironomycin and AM23 respectively are illustrated in the Table 5 hereunder: […]"}}, "note": "“Also recorded” adds a separate entry of the source.", "data": [{"smiles": "C#CCN[C@@H]1C=C[C@]2(O[C@H]([C@@H](CC)C(=O)[C@@H](C)[C@@H](O)[C@H](C)[C@@H]3O[C@@H]([C@@H](CC)C(=O)O)CC[C@@H]3C)[C@@H](C)C[C@H]2C)O[C@@]12CC[C@@](C)([C@H]1CC[C@](O)(CC)[C@H](C)O1)O2", "note": "[Ironomycin]", "values": [{"measurement": "caspase activation", "setting": "[1]", "result": "activation of caspases 3/7 and 9"}, {"measurement": "IC50", "setting": "[2]", "result": 444, "unit": "nM"}, {"measurement": "IC50", "setting": "[3]", "result": 13, "unit": "nM"}, {"measurement": "IC50", "setting": "[4]", "result": 19, "unit": "nM"}, {"measurement": "IC50", "setting": "[5]", "result": 30, "unit": "nM"}, {"measurement": "IC50", "setting": "[6]", "result": 51, "unit": "nM"}, {"measurement": "IC50", "setting": "[7]", "result": 57, "unit": "nM"}, {"measurement": "IC50", "setting": "[8]", "result": 31, "unit": "nM"}, {"measurement": "IC50", "setting": "[9]", "result": 52, "unit": "nM"}, {"measurement": "IC50", "setting": "[10]", "result": 27, "unit": "nM"}, {"measurement": "IC50", "setting": "[11]", "result": 24, "unit": "nM"}, {"measurement": "IC50", "setting": "[12]", "result": 26, "unit": "nM"}, {"measurement": "IC50", "setting": "[13]", "result": 239, "unit": "nM"}, {"measurement": "IC50", "setting": "[14]", "result": 64.7, "unit": "nM"}, {"measurement": "IC50", "setting": "[15]", "result": 84, "unit": "nM"}, {"measurement": "IC50", "setting": "[16]", "result": 73, "unit": "nM"}, {"measurement": "IC50", "setting": "[17]", "result": 156, "unit": "nM"}, {"measurement": "IC50", "setting": "[18]", "result": 36, "unit": "nM"}, {"measurement": "toxicity for non-tumoral cells", "setting": "[19]", "result": "without significant toxicity"}, {"measurement": "effect of iron supplementation on induced apoptosis", "setting": "[20]", "result": "not reversed by Iron supplementation"}, {"measurement": "effect of iron supplementation on induced apoptosis", "setting": "[20]; listed as ironomycin", "result": "did not affect"}, {"measurement": "cell growth inhibition / toxicity on MM cell lines", "setting": "[21]", "result": "significant cell growth inhibition; also recorded: kill MM cells with nanomolar concentration"}]}]}
